Experimental data from patent publication US5679638A, “Method for treating a tumor with a chemotherapeutic agent” (Biopure Corporation, priority 1993, dated 1997).

Experiments:
FSaIIC tumor cells = assay: FSaIIC tumor excision / colony forming assay (tumor cell killing); type: in vivo, mouse; conditions: for FSaIIC cell killing by drug, dose dependence: drug alone, increasing dose; for Enhancement of tumor cell killing by UPHS at higher drug doses: higher doses of drug + UPHS vs drug alone
Procedure: The procedures and materials of Example I were employed, except as noted. In this Example, tumors were allowed to grow to approximately 100 mm^3 in volume, which took about one week after tumor cell implantation. At this time, 0.3 ml of UPHS was injected via the tail vein. Immediately afterward, PAM was administered by intraperitoneal injection. The animals were then allowed to breathe air or were placed in a circulating atmosphere of carbogen for 6 hours and then removed to air. The mice were sacrificed 24 hours after treatment to allow for full expression of drug cytotoxicity and repair of potentially lethal damage. The tumors were excised under sterile conditions and single cell suspensions were prepared for a colony forming assay. See Teicher, B. A. et al., "Approaches to Defining the Mechanism of Fluosol-DA 20%/Carbogen Enhancement of Melphalan Antitumor Activity", Cancer Res. 47:513-518 (1987); Teicher, B. A. et al., "Differential Enhancement of Melphalan Cytotoxicity in Tumor and Normal Tissue by Fluosol-DA and Oxygen Breathing", Int. J. Cancer 36:585-589 (1985); Teicher, B. A. et al., "Effects of Various Oxygenation Conditions on the Enhancement by Fluosol-DA of Melphalan Antitumor Activity", Cancer Res. 47:5036-5041 (1987); Teicher, B. A. and S. A. Holden, "A Survey of the Effect of Adding Fluosol-DA 20%/O2 to Treatment with Various Chemotherapeutic Agents", Cancer Treat. Rep. 71:173-177 (1987), Teicher, B. A. et al., "Effect of Various Oxygenation Conditions and Fluosol-DA on Cancer Chemotherapeutic Agents", Biomat., Art. Cells and Art. Organs 16:533-546 (1988). One week later, the plates were stained with crystal violet and colonies of more than 50 cells were counted.
The result for the tumor excision assays and bone marrow toxicity tests with PAM are plotted in FIG. 1 wherein the surviving fraction +SE of cells from the treated groups are compared to untreated controls.
The procedures and materials of Example II were employed except that CTX was administered instead of PAM.

[1] = test system: bone marrow granulocyte-macrophage colony forming units (CFU-GM); assay: Bone marrow toxicity, CFU-GM colony forming assay; type: in vivo, mouse; conditions: drug + UPHS vs drug alone; PAM across entire dosage range
Procedure: The procedures and materials of Example I were employed, except as noted. In this Example, tumors were allowed to grow to approximately 100 mm^3 in volume, which took about one week after tumor cell implantation. At this time, 0.3 ml of UPHS was injected via the tail vein. Immediately afterward, PAM was administered by intraperitoneal injection. The animals were then allowed to breathe air or were placed in a circulating atmosphere of carbogen for 6 hours and then removed to air. The mice were sacrificed 24 hours after treatment to allow for full expression of drug cytotoxicity and repair of potentially lethal damage. The tumors were excised under sterile conditions and single cell suspensions were prepared for a colony forming assay. […] One week later, the plates were stained with crystal violet and colonies of more than 50 cells were counted.
Bone marrow toxicity was determined as follows. […] Colonies of at least 50 cells were scored on an acculite colony counter (Fisher, Springfield, N.J.). The results from three experiments, in which each group was measured in triplicate, were averaged. […]

Lewis lung carcinoma = Lewis lung carcinoma growth delay; type: in vivo, mouse (male C57BL); conditions: for Lewis lung carcinoma growth delay, Mean Days: NSAID days 4-18; for Increase of growth delay by addition of UPHS: drug + UPHS vs drug
Procedure: The Lewis lung tumor was carried in male C57BL mice (Taconic Laboratories, Germantown, N.Y.). For the experiments, 2×10^6 tumor cells prepared from a brei of several stock tumors were implanted subctaneously into the legs of male mice aged 8-10 weeks. […] Animals bearing Lewis lung tumors were treated daily with intraperitoneal Mino (10 mg/kg), Diflun (15 mg/kg) or Sulin (15 mg/kg) on days 4-18 following tumor implantation. When the tumors had reached a volume of approximately 100 mm^3 (day 7 after tumor cell implantation), cytotoxic therapy was initiated.
Therapy consisted of treatment with an antitumor alkylating agent, an antitumor antimetabolite, a non-steroidal anti-inflammatory drug (NSAID) and/or UPHS. […] CTX therapy consisted of three successive 150 mg/kg CTX doses administered by intraperitoneal injections on days 7, 9 and 11. BCNU therapy consisted of three successive 15 mg/Kg BCNU doses administered by intraperitoneal injections on days 7, 9 and 11. Therapy with the antimetabolite 5-fluorouracil(5-FU) consisted of 4 successive 40 mg/kg 5-FU doses administered by intraperitoneal injections daily on days 7 to 11. The 5-FU was purchased from Sigma Chemical Co., St. Louis, Mo. Fourteen doses of 10 mg/kg of NSAID were administered daily by intraperitoneal injections on days 4 to 18. UPHS was injected into the tail vein in 8 ml/kg doses daily on days 7-11.
The progress of each tumor was measured thrice weekly until it had reached a volume of 500 mm^3. Tumor growth delay was calculated as the number of days required for each treated tumor to reach a volume of 500 mm^3 as compared with untreated control tumors. Each treatment group comprised six animals and the experiment was repeated three times.
On the twentieth day after the subcutaneous tumor implantation, the delay in Lewis Lung Carcinoma tumor growth was evaluated. Tumor growth delay data is presented as the mean value ±SE calculated for the treatment group as compared with the control group.

FSaIIC fibrosarcoma [2] = conditions: cited from earlier work
FSaIIC fibrosarcoma [3] = assay: FSaIIC fibrosarcoma tumor growth delay; type: in vivo, mouse (male C3H/FeJ mice); conditions: PAM 10 mg/kg + Fluosol-DA, carbogen 1 hour
[4] = WITH UPHS (8 ml/kg daily days 7-11), CDDP or PAM 10 mg/kg, CTX 3 x 150, BCNU 3 x 15, 5-FU 40 mg/kg
[5] = WITHOUT UPHS, CDDP or PAM 10 mg/kg day 7, CTX 3 x 150, BCNU 3 x 15 mg/kg days 7, 9, 11, 5-FU 40 mg/kg

| SMILES | Increase in tumor cell killing by addition of UPHS (FSaIIC tumor cells; PAM 10 mg/kg + UPHS vs PAM alone) [fold] | FSaIIC cell killing by drug, dose dependence (FSaIIC tumor cells) | Enhancement of tumor cell killing by UPHS at higher drug doses (FSaIIC tumor cells) | Increase in bone marrow CFU-GM killing / toxicity by addition of UPHS [1] | Lewis lung carcinoma growth delay, Mean Days (Lewis lung carcinoma; [4]) [days] | Lewis lung carcinoma growth delay, Mean Days (Lewis lung carcinoma; [5]) [days] | Increase of growth delay by addition of UPHS (Lewis lung carcinoma) | Effect of extending carbogen breathing to 6 hours on tumor growth delay (FSaIIC fibrosarcoma [2]; PAM + Fluosol-DA, carbogen 6 hours) | Tumor growth delay, PAM prepared in Fluosol-DA as a vehicle (FSaIIC fibrosarcoma [2]; PAM in Fluosol-DA vehicle, carbogen breathing) | Tumor growth delay, with Fluosol-DA and carbogen (FSaIIC fibrosarcoma [3]) | Increase in killing of FSaIIC cells by addition of UPHS (FSaIIC tumor cells; CTX 100 mg/kg + UPHS vs CTX alone) [fold] | Greater kill of FSaIIC tumor cells with combined treatment (FSaIIC tumor cells; CTX 500 mg/kg (highest dose) + UPHS vs CTX alone) | Tumor growth delay relative to other drugs (Lewis lung carcinoma; vs CDDP, PAM, BCNU or 5-FU) | Duration of carbogen breathing necessary for significant enhancement of growth delay (FSaIIC fibrosarcoma [2]; FSaIIC, CTX) |
| --- | --- | --- | --- | --- | --- | --- | --- | --- | --- | --- | --- | --- | --- | --- |
| N[C@@H](Cc1ccc(N(CCCl)CCCl)cc1)C(=O)O [PAM, Melphalan] | ~10 | killed FSaIIC cells in a log-linear manner with increasing dose | the enhancement in tumor cell killing with the combination treatment disappeared | 3 fold | 6.8 ± 0.4 | 2.7 ± 0.3 | more than two-fold | did not alter the tumor growth delay | about 29.5 days | about 9.5 days |  |  |  |  |
| N.N.[Cl][Pt][Cl] [CDDP, cis-diaminodichloroplatinum(II)] |  |  |  |  | 5.7 ± 0.4 | 4.5 ± 0.3 | also enhanced, to a lesser degree |  |  |  |  |  |  |  |
| O=NN(CCCl)C(=O)NCCCl [BCNU, N,N-bis(2-chloroethyl)-N-nitrosourea] |  |  |  |  | 5.3 ± 0.5 | 3.6 ± 0.4 | also enhanced, to a lesser degree |  |  |  |  |  |  |  |
| O=P1(N(CCCl)CCCl)NCCCO1 (centres unmarked) [CTX, Cyclophosphamide] |  | killed increasing numbers of FSaIIC cells with increasing doses | the differential between tumor cell kill by CTX alone and CTX plus UPHS decreased as the dose of CTX was increased | 2-3 fold | 43.1 ± 2.9 | 21.5 ± 1.7 | more than two-fold |  |  |  | ~20 | about 9 fold | substantially longer than that resulting from CDDP, PAM, BCNU or 5-FU | Six hours of carbogen breathing are necessary to obtain a significant enhancement in the growth delay |
